Measured values reported in patent US20120100616A1, “METHOD OF DOUBLE CROSSOVER HOMOLOGOUS REC[…] CLOSTRIDIA” (THE UNIVERSITY OF NOTTINGHAM, priority 2009, published 2012).

Legend:
[1] = system: E. coli harbouring the codA construct; assay: functionality testing of codA gene in E. coli with and without FC; type: cell-based; details: codA cassette on pMTL960 plasmid, with vs without FC
Source text: (§1) The codA expression cassette was isolated from the vector used by Fox et al., Gene Therapy. (1996) 3:173-178 and cloned into pMTL960. This plasmid was used to test the functionality of the codA gene in E. coli and C. difficile.

[2] = system: C. difficile cells harbouring the codA cassette; assay: functionality testing of codA cassette for counter selection on minimal medium with FC; type: cell-based; details: 100 μg/ml FC, modified minimal medium, codA cassette on pMTL960 plasmid, FIG. 4
Source text: as §1

Nc1nc(=O)[nH]cc1F [FC, 5-fluorocytosine]
growth of E. coli carrying the codA construct in presence of FC [1]: permitting growth in the absence of FC but not in the presence of FC | growth of cells expressing codA on minimal medium containing FC [2]: did not grow
